Test results published in paper PMC10385371, “Discovery of Novel Coumarin-Schiff Base Hybrids as Potential Acetylcholinesterase Inhibitors: Design, Synthesis, Enzyme Inhibition, and Computational Studies” (Pharmaceuticals, 2023).
Values joined by “and” are separate entries in the source; they are usually repeats but may differ in a detail not shown here. Equal values may be shown once.

How the values were obtained:
[1] = molecular target: T1, Acetylcholinesterase (Type VI-S, from Electrophorus electricus) (Electrophorus electricus, UniProt O42275); assay: biochemical; assay type: biochemical; settings: for IC50: read-out: IC50 against AChE; for potency relative to galantamine (positive control): ratio of AChE IC50 values
T1 construct: purchased Sigma Aldrich Type VI-S (catalogue number not given)
Protocol: The procedure described by Ellman, slightly modified, was performed to assess the AChE inhibitory activity of synthesized compounds, according to reported procedures in the literature. Detailed protocol is provided in supplementary materials. […]
In vitro inhibition study on AChE
The assay for AChE inhibitory activity was done based on a modified protocol. Acetylcholinesterase (Type VI-S, from Electrophorus electricus), 5,5′-dithiobis-2-nitrobenzoic acid (Ellman's reagent, DTNB) and acetylthiocholine chloride (ATCI) were purchased from Sigma Aldrich. Enzyme solutions were prepared to give 0.28 units/mL aliquots. Stock solutions were prepared by dissolving 1 mg of tested compounds in 1 mL of DMSO and diluted to a final concentration of 1000, 800, 600, 400, 200, 100, and 50 µg/mL. The assay buffer solution A (pH = 8.0) was prepared by taking 93.2 mL of solution (6 g of sodium dihydrogen phosphate was dissolved in 500 mL of deionized water) and mixed with 6.8 mL of solution (7 g of sodium hydrogen phosphate was dissolved in 500 mL of deionized water) and adjusted. 57.7 mL of sodium dihydrogen phosphate and 42.3 mL of sodium hydrogen phosphate were mixed and adjusted to prepare the buffer B (pH = 7.0). […]
fresh solutions of 0.01 M DTNB (0.396 g of DTNB and 15 mg NaHCO3 were dissolved in 100 mL of the buffer B) in a dark place, and 0.075 M ATCI (0.2048 g of ATCI was dissolved in 10 mL of deionized water), were prepared. In 96-well plates, 20 μL of the test compounds, 10 μL of DTNB, 15 μL of the enzyme (AChE) and 140 μL of the buffer solution A, were added in dark conditions and incubated for 15 min, followed by the addition of ATCI (10 μL) and incubated again for the same period. The activity was measured by reading the absorbance of the solution at 412 nm. Blanks containing all the components except the enzyme were carried out.
IC50 values were calculated as the concentration of a compound that produces 50% enzyme activity inhibition using the GraphPad Prism 8 programme package. Results are expressed as the mean ± SD of at least three different experiments performed in triplicate.
Percentage inhibition was calculated by this formula:
% ሺInhibitionሻ = B−AB X 100
• A= absorbance of the enzyme with the test sample;
• B = absorbance of the enzyme without test sample.
• Each experiment was repeated thrice.

[2] = tested on: AChE; settings: read-out: IC50 against AChE; cited from earlier work
[3] = molecular target: human monoamine oxidase hMAO-B; settings: cited from earlier work
[4] = molecular target: human monoamine oxidase hMAO-A; settings: cited from earlier work

T1 sequence (O42275 24-633): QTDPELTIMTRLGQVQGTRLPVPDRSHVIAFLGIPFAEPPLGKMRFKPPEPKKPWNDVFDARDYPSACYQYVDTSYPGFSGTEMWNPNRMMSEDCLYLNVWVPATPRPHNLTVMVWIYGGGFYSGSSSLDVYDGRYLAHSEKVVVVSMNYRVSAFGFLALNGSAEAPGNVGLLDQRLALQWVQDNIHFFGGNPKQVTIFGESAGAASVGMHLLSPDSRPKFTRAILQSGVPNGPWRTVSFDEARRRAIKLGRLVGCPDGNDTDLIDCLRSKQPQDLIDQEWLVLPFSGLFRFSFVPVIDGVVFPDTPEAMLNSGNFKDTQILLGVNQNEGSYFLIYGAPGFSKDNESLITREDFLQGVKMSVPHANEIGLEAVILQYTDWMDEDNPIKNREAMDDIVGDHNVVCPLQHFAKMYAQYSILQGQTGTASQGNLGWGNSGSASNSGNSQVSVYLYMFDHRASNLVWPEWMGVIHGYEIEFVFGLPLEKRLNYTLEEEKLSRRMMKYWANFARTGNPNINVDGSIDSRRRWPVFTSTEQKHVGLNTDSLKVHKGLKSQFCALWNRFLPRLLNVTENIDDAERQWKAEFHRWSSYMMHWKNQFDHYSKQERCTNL

Row | Structure (SMILES) | IC50 [1] [µM] | also measured
1 | COc1ccc2c(COc3ccc(/C=N/c4ccccc4)cc3)cc(=O)oc2c1 [13a, (E)-7-Methoxy-4-((4-((phenylimino)methyl)phenoxy)methyl)-2H-chromen-2-one] | 440 ± 16 | –
2 | COc1ccc(/N=C/c2ccc(OCc3cc(=O)oc4cc(OC)ccc34)cc2)cc1 [13b, (E)-7-Methoxy-4-((4-(((4-methoxyphenyl)imino)methyl)phenoxy)methyl)-2H-chromen-2-one] | 466 ± 7 | –
3 | COc1ccc2c(COc3ccc(/C=N/c4ccc(Cl)cc4)cc3)cc(=O)oc2c1 [13c, (E)-4-((4-(((4-Chlorophenyl)imino)methyl)phenoxy)methyl)-7-methoxy-2H-chromen-2-one] | 232 ± 11 | potency relative to galantamine (positive control) [1]: 5 fold and ~ 5 fold
4 | COc1ccc2c(COc3ccc(/C=N/c4ccc(Cl)cc4)cc3OC)cc(=O)oc2c1 [13d, (E)-4-((4-(((4-Chlorophenyl)imino)methyl)-2-methoxyphenoxy)methyl)-7-methoxy-2H-chromen-2-one] | – | potency relative to galantamine (positive control) [1]: 5 fold and ~ 5 fold
5 | COc1ccc2c(COc3ccc(/C=N/c4ccccc4)cc3OC)cc(=O)oc2c1 [13e, (E)-7-Methoxy-4-((2-methoxy-4-((phenylimino)methyl)phenoxy)methyl)-2H-chromen-2-one] | 297 ± 6 | –
6 | COc1ccc(/N=C/c2ccc(OCc3cc(=O)oc4cc(OC)ccc34)c(OC)c2)cc1 [13f, (E)-7-Methoxy-4-((2-methoxy-4-(((4-methoxyphenyl)imino)methyl)phenoxy)methyl)-2H-chromen-2-one] | 365 ± 25 | –
7 | COc1ccc(/N=C/c2cccc(OCc3cc(=O)oc4cc(OC)ccc34)c2)cc1 [13g, (E)-7-Methoxy-4-((3-(((4-methoxyphenyl)imino)methyl)phenoxy)methyl)-2H-chromen-2-one] | 1090 ± 58 | –
8 | COc1ccc2c(COc3cc(/C=N/c4ccc(Cl)cc4)ccc3OC)cc(=O)oc2c1 [13i, (E)-4-((5-(((4-Chlorophenyl)imino)methyl)-2-methoxyphenoxy)methyl)-7-methoxy-2H-chromen-2-one] | 712 ± 44 | –
9 | COc1ccc2c(COc3cccc(/C=N/c4ccc(Cl)cc4)c3)cc(=O)oc2c1 [13j, (E)-4-((3-(((4-Chlorophenyl)imino)methyl)phenoxy)methyl)-7-methoxy-2H-chromen-2-one] | 651 ± 3 | –
10 | Cc1c(O)ccc2c(CC(=O)NCCN3CCN(Cc4ccccc4)CC3)cc(=O)oc12 [compound 3] | – | IC50 [2]: 0.04 µM
11 | O=c1oc2ccccc2c(O)c1/N=C/c1ccc(O)c(O)c1O [compound 4] | – | IC50 [3]: 0.711 µM; IC50 [4]: 0.673 µM
12 | O=C(N/N=C\c1c2ccccc2cc2ccccc12)c1ccccc1O [compound 5] | – | IC50 [2]: 4.12 µM
